Source: patent US10633338B2, “Binding Function 3 (BF3) site compounds as therapeutics and methods for their use” (THE UNIVERSITY OF BRITISH COLUMBIA, priority 2014, dated 2020)
Read-outs that look alike come from different tables or passages of the source.

Assays:
[1] = system: PSA; assay: Prostate Surface Antigen (PSA) assay, PSA excreted into the media; format: cell-based, human; settings: same plates as eGFP assay
Description: The evaluation of PSA excreted into the media was performed in parallel to the eGFP assay using the same plates (see above description). After the cells were incubated for 3 days 150 μl of the media was taken from each well, and added to 150 μl of PBS.

[2] = target: T1, androgen receptor (AR) (Homo sapiens, UniProt P10275, T878A); assay: eGFP cellular AR transcription assay; format: cell-based
T1 construct: stably transfected eGFP-expressing LNCaP human prostate cancer cells (LN-ARR2PB-eGFP) containing an androgen responsive probasin-derived promoter; endogenous in cells; host or cells: LNCaP (LN-ARR2PB-eGFP)
T1 sequence (P10275 1-920 T878A): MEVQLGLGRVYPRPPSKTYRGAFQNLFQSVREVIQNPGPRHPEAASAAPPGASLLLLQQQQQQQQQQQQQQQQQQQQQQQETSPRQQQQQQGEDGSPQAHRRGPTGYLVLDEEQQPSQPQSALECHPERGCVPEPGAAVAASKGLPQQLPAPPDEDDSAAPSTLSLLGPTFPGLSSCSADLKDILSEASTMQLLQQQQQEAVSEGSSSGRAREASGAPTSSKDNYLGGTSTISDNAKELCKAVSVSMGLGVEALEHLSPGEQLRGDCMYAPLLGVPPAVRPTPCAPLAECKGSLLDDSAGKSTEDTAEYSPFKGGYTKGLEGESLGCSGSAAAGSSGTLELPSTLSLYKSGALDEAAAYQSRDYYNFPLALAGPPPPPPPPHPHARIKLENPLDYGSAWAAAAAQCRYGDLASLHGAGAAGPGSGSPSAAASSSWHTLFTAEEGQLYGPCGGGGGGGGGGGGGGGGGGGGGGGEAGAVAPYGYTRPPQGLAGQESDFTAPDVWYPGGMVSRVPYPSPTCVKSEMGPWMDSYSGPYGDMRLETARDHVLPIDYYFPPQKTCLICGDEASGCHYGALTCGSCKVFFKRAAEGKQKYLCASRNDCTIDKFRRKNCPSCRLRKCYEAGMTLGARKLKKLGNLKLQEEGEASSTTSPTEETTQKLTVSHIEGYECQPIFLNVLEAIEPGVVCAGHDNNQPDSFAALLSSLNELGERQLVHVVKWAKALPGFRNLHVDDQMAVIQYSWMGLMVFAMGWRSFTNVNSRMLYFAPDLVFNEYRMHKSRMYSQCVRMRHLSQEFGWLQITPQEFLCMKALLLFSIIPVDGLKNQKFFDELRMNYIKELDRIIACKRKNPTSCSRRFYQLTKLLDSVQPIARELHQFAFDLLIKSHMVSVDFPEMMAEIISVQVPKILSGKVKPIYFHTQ
How it was run: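 AR transcriptional activity is read as eGFP expression from a probasin-derived androgen-responsive promoter. Compound titrated 0-100 μM in the presence of 0.1 nM R1881; 35,000 cells/well.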

[3] = Homo sapiens, 72 h, PSA excreted into media, 3 days incubation, read-out: PSA IC50
[4] = LN-ARR2PBeGFP LNCaP cells, 0.1 nM R1881, 3 days incubation, read-out: eGFP IC50
[5] = Homo sapiens, 72 h, media after 3 days, read-out: IC50 (PSA)
[6] = LN-ARR2PB-eGFP LNCaP cells, 0.1 nM R1881, 3 days, 0-100 μM compound, read-out: IC50 (eGFP)
[7] = PSA excreted into media, 3 days incubation
[8] = LN-ARR2PBeGFP LNCaP cells, 0.1 nM R1881, 3 days incubation

`Fc1ccc2nc(-c3c[nH]c4c(F)c(F)c(F)cc34)cnc2c1` [Compound 13762] was tested, and the IC50 [1, 3] was 429 nM and the IC50 [2, 4] was 479 nM.

With `Fc1cc2[nH]cc(-c3ccc4c(F)cccc4n3)c2cc1F` [Compound 13693] the IC50 [1, 3] was 120 nM and the IC50 [2, 4] was 110 nM.

`Cc1cccc2c(-c3ccc4cccnc4c3)c[nH]c12` [13 744] showed an IC50 [1, 5] of 750 nM and an IC50 [2, 6] of 760 nM.

In the case of `c1ccc2[nH]c(-c3c[nH]c4ccccc34)cc2c1` [Compound 13127], the IC50 [1, 3] is reported as 110 nM and the IC50 [2, 4] is reported as 2100 nM.

`c1ccc2nc(-c3c[nH]c4cnccc34)ccc2c1` [13 583] was tested, and the IC50 [1, 5] was 930 nM and the IC50 [2, 6] was 1100 nM.

For `CC1(C)c2cc(Br)ccc2NC1c1c[nH]c2ccccc12` (stereo not shown) [Compound 13511], the IC50 [1, 3] was 1900 nM and the IC50 [2, 4] was 3000 nM.

Compound `CC1(C)C(c2c[nH]c3c(O)cccc23)=Nc2ccccc21` [Compound 13541] has an IC50 [1, 3] of 940 nM and an IC50 [2, 4] of 500 nM.

`c1ccc(-c2c[nH]c3ncccc23)cc1` [13 739] gave an IC50 [1, 5] of 670 nM and an IC50 [2, 6] of 660 nM.

For `C(=C\c1c[nH]c2ccccc12)/c1ccccc1` [Compound 13235], the IC50 [1, 3] was 1010 nM and the IC50 [2, 4] was 2200 nM.

For `Cn1ccc2cc(-c3ccc4ccccc4c3)ccc21` [13 756], the IC50 [1, 5] was 1490 nM and the IC50 [2, 6] was 2000 nM.

With `c1ccc2c(Cc3nn[nH]n3)c[nH]c2c1` [13 700] the “IC50 (PSA)” value ([1]; media after 3 days) was “IC50 (PSA) = Inactive” and the “IC50 (eGFP)” value ([2]; LN-ARR2PB-eGFP LNCaP cells, 0.1 nM R1881, 3 days, 0-100 μM compound) was “IC50 (eGFP) = Inactive”.

`Oc1cccc2c(C3Nc4ccccc4C34CCCCC4)c[nH]c12` (stereo not shown) [Compound 13552] was tested, and the IC50 [1, 3] was 1140 nM and the IC50 [2, 4] was 1130 nM.

`Cc1cc(C)c2nc(-c3c[nH]c4c(C)c(F)ccc34)ccc2c1` [Compound 13636] was tested, and the “PSA IC50” value [1, 7] was “Inactive” and the “eGFP IC50” value [2, 8] was “Inactive”.

`Cc1cc(C)c2[nH]cc(-c3ccc4c(C#N)cccc4n3)c2c1` [Compound 13608] was tested, and the “PSA IC50” value [1, 7] was “Inactive” and the “eGFP IC50” value [2, 8] was “Inactive”.

For `O=C(O)c1cccc2nc(-c3c[nH]c4c(F)cc(F)cc34)ccc12` [Compound 13666], the “PSA IC50” value [1, 7] was “Inactive” and the “eGFP IC50” value [2, 8] was “Inactive”.

With `Cc1cccc2c(-c3ccc4c(F)cccc4n3)c[nH]c12` [Compound 13623] the “PSA IC50” value [1, 7] was “Inactive” and the “eGFP IC50” value [2, 8] was “Inactive”.

`CNC(=O)c1ccc(Cl)c2nc(-c3c[nH]c4c(F)c(F)c(F)cc34)ccc12` [Compound 13755] was tested, and the IC50 [1, 3] was 470 nM and the IC50 [2, 4] was 470 nM.

For `Brc1cccc2c(-c3cnc4ccccc4c3)c[nH]c12` [Compound 13653], the IC50 [1, 3] was 290 nM and the IC50 [2, 4] was 1130 nM.

Compound `CC1(C)c2ccccc2NC1c1c[nH]c2ccc(Br)cc12` (stereo not shown) [Compound 13510] has an IC50 [1, 3] of 1540 nM and an IC50 [2, 4] of 2500 nM.

In the case of `N#Cc1cc(-c2c[nH]c3cc(F)c(F)cc23)nc2ccccc12` [Compound 13664], the “PSA IC50” value [1, 7] is reported as “Inactive” and the “eGFP IC50” value [2, 8] is reported as “Inactive”.

`c1ccc(-c2ccc(-c3c[nH]c4ncccc34)cc2)cc1` [13 715] was tested, and the IC50 [1, 5] was 350 nM and the IC50 [2, 6] was 4080 nM.

`Brc1ccc(-c2c[nH]c3cccnc23)cc1` [13 737] gave an IC50 [1, 5] of 37 nM and an IC50 [2, 6] of 80 nM.

`Cc1cccc2c(-c3nc4ccccc4s3)c[nH]c12` [13 760] gave an IC50 ([1]; media after 3 days, read-out: IC50 (PSA)) of 520 nM and an IC50 [2, 6] of 100 nM.

`O=[N+]([O-])c1cccc2c(-c3ccc(Br)cc3)c[nH]c12` [13 738] gave an IC50 [1, 5] of 62 nM and an IC50 [2, 6] of 83 nM.

In the case of `Fc1cc(F)c2[nH]cc(-c3ccc4c(F)cccc4n3)c2c1` [Compound 13671], the “PSA IC50” value [1, 7] is reported as “Inactive” and the “eGFP IC50” value [2, 8] is reported as “Inactive”.

With `Cc1cccc2c(-c3ncc4ccccc4n3)c[nH]c12` [Compound 13603] the IC50 [1, 3] was 339 nM and the IC50 [2, 4] was 633 nM.

`Fc1cc2c(-c3ccc4cccc(Cl)c4n3)c[nH]c2c(F)c1F` [Compound 13773] was tested, and the IC50 [1, 3] was 303 nM and the IC50 [2, 4] was 300 nM.

`Cc1cccc2c(-c3ccc4ccccc4c3)c[nH]c12` [Compound 13591] showed an IC50 [1, 3] of 85 nM and an IC50 [2, 4] of 42 nM.

In the case of `FC(F)(F)c1ccccc1-c1c[nH]c2ccccc12` [Compound 13745], the IC50 [1, 3] is reported as 950 nM and the IC50 [2, 4] is reported as 1010 nM.
